Test results: patent US20100178277A1, “METHODS AND COMPOSITIONS FOR STIMULATING CELLS” (MEDIVATION NEUROLOGY, INC., priority 2007, published 2010)

Legend:
[1] = test system: primary rat spinal motor neurons; assay: Neurite outgrowth of primary rat spinal motor neurons cultured with dimebon; assay type: cell-based; conditions: picomolar and nanomolar concentrations; FIG. 4
Method: (§1) Standard methods were used to isolate cortical neurons and spinal motor neurons. For the isolation of primary rat cortical neurons, the fetal brain from a pregnant rat at 17 days of gestation was prepared in Leibovitz's medium (L15; Gibco). The cortex was dissected out, and the meninges were removed. Trypsin (Gibco) was used to dissociate cortical neurons for 30 minutes at 37° C. with DNAse I. The cells were triturated in a 10 mL pipette in Dulbecco's Modified Eagle Media (“DMEM”; Gibco) with 10% Fetal Bovine Serum (“FBS”) (Gibco) and centrifuged at 350×g for 10 minutes at room temperature. The cells were suspended in Neurobasal medium supplemented with 2% B27 (Gibco) and 0.5 mM L-glutamine (Gibco). […] The results were expressed as mean (s.e.m.). […]
(§2) Primary neuronal cultures were prepared from rat fetal tissue on the gestation days indicated from the cortex (day 17), hippocampus (day 19) or spine (day 15). […] Neurite length was calculated using Image-Pro Plus. […] Mitochondrial effects were assessed with primary rat hippocampal cells treated with Dimebon or vehicle and 0.25 μM ionomycin. Dimebon's effects on JC-1 mitochondrial staining was also assessed in ionomycin-treated human neuroblastoma cells (SK—N—SH). Mitochondrial accumulation of JC-1 was assessed by fluorescence microscopy.

[2] = test system: primary rat hippocampal cells; assay: Mitochondrial JC-1 staining in ionomycin-treated primary rat hippocampal cells; assay type: cell-based; conditions: Dimebon 0.25 nM and 2.5 nM; 0.25 μM ionomycin; compared with vehicle treatment
Method: (§3) Primary neuronal cultures were prepared from rat fetal tissue on the gestation days indicated from the cortex (day 17), hippocampus (day 19) or spine (day 15). Neurons were dissociated by trypsinization in the presence of DNAseI and trituration and cultured in Neurobasal (Gibco) medium supplemented with 2% B27 (Gibco), 0.5 mM L-Glutamine. Cells were plated on poly L-lysine coated plates, allowed to adhere and maintained at 37° C. in 5% CO2-95% air and then test compound was added for a period of 3 days. Cultures were fixed using 2.5% glutaraldehyde. Approximately 80 digital images were taken per condition. Neurite length was calculated using Image-Pro Plus. Each analysis was performed with two separate culture studies. Dimebon was tested at concentrations of 0.01-500 nM and BDNF at 50 ng/mL. Mitochondrial effects were assessed with primary rat hippocampal cells treated with Dimebon or vehicle and 0.25 μM ionomycin. Dimebon's effects on JC-1 mitochondrial staining was also assessed in ionomycin-treated human neuroblastoma cells (SK—N—SH). Mitochondrial accumulation of JC-1 was assessed by fluorescence microscopy.

[3] = test system: primary rat hippocampal neurons; assay: Neurite outgrowth of primary rat hippocampal neurons cultured with dimebon; assay type: cell-based
Method: To isolate hippocampal neurons, a female rat of 19 days gestation was killed by cervical dislocation, and the fetuses were removed from the uterus. Their brains were removed and placed in ice-cold medium of Leibovitz (L15, Gibco, Invitrogen). Meninges were carefully removed, and the hippocamps were dissected out. The hippocampal neurons were dissociated by trypsinization for 30 minutes at 37° C. (Trypsin-EDTA; Gibco) in the presence of DNAse I (Roche; Meylan). The reaction was stopped by the addition of DMEM (Gibco) cell culture medium with 10% of FBS (Gibco). The suspension was triturated with a 10-ml pipette using a needle syringe 21G and centrifuged at 350×g for 10 minutes at room temperature. The resulting pellet is resuspended in culture medium containing Neurobasal medium (Gibco) supplemented with 2% B27 supplement (Gibco) and 2 mM of glutamine (Gibco). Viable cells were counted in a Neubauer cytometer using the trypan blue exclusion test (Sigma) and seeded on the basis of 30,000 cells per Petri dish (Nunc) precoated with poly-L-lysine. Cells were allowed to adhere for two hours and maintained in a humidified incubator at 37° C. in 5% CO2-95% air atmosphere. After adhesion, a vehicle control or dimebon was added at different concentrations to the medium. BDNF (1.85 nM) was used as a positive control for neurite growth. After treatment, cultures were washed in phosphate-buffered saline (PBS, Gibco) and fixed in glutaraldehyde 2.5% in PBS. Cells were fixed after 3 days growth. Several pictures (˜80) of cells with neurites without any branching were taken per condition with a camera (Coolpix 995; Nikon) fixed on microscope (Nikon, objective 40×). The length measurements were made by analysis of the pictures using software from Image-Pro Plus (France). The results were expressed as mean (s.e.m.). Statistical analysis of the data was performed using one way analysis of variance (ANOVA). […]
The effect of Dimebon (100 nM) on neurite outgrowth using primary hippocampal neurons was evaluated by measuring neurite length (expressed % of control, FIG. 5A) and number of neurites per neuron (FIG. 5B). The effects of vehicle, Dimebon and BDNF (50 ng/mL) were determined after incubations of 24 hours, 48 hours and 72 hours. […]
as §2

[4] = test system: primary rat cortical neurons; assay: Neurite outgrowth of primary rat cortical neurons cultured with dimebon; assay type: cell-based; conditions: low concentrations (picomolar and nanomolar); 3 days growth; FIG. 1
Method: as §1, §2

[5] = test system: human neuroblastoma cells (SK—N—SH); assay: Mitochondrial JC-1 staining in ionomycin-treated SK-N-SH cells; assay type: cell-based
Method: as §3

[6] = test system: BrdU positive cells/neurons in the hippocampus and dentate gyrus; assay: Neurogenesis in healthy rats: BrdU / NeuN immunohistochemistry of hippocampus and dentate gyrus; assay type: in vivo, Wistar rats; conditions: 14 days
Text: Wistar rats were obtained from Charles River or Harlan Winkelmann (Germany). Male rats were approximately 3 months old upon arrival at the animal colony. Animals were kept in an animal facility under standardized conditions and according to the animal welfare regulations of the Ministry of Science of the Austrian government. A record of bodyweights was maintained. The animals were allowed to acclimatize for at least one week prior to any experimental manipulations. Twelve rats per group were maintained on a 12 hour light/dark cycle. Three backup animals were maintained in order to compensate for animal loss. All rats were housed in groups of four per cage and had ad libitum access to food and water. Rats were randomly allocated to four different treatment groups receiving intraperitoneal (i.p.) 5-bromo-2-deoxyuridine (BrdU, Sigma #B9285, 50 mg/kg body weight (b.w.)) and either (i) Dimebon at 10 mg/kg b.w./twice a day; (ii) Dimebon at 30 mg/kg b.w./twice a day; (iii) Dimebon at 60 mg/kg b.w./twice a day; or (iv) 0.2 mL vehicle (saline) twice a day. Treatment with BrdU, a synthetic nucleoside analog of thymidine, is commonly used to detect proliferating cells in living tissues such as the brain. Dimebon and vehicle were administered orally twice a day in a volume of 0.2 mL. BrdU was administered every other day. The daily Dimebon or vehicle treatment was performed several minutes before BrdU treatment. On day 14, animals were sacrificed approximately four hours after the last Dimebon treatment and one day after the last BrdU treatment. Diluted dimebon was prepared fresh daily. At sacrifice, the rats were sedated using standard anesthesia. After transcardial perfusion with phosphate buffered saline (PBS) followed by 4% Paraformaldehyde/PBS, the brain from each rat was carefully removed, post-fixed in 4% Paraformaldehyde/PBS for one hour, transferred to 15% sucrose for cryoprotection, and shock-frozen in liquid isopentane. Brains were stored at −80° C. until cryo-cutting. The brains were cut sagittally using a cryotome and stored at −20° C. until staining. Five layers were cut with 10 sections at 20 micrometers per layer with an interlayer slice gap of 100 micrometers. Standard Cresyl-Violett staining was performed on two consecutive slices per animal. BrdU immunohistochemistry was quantified to provide a morphological overview of cell division. For the evaluation of BrdU positive cells/neurons, sections were processed by double-incubation with mouse anti-Neuronal Nuclei (NeuN) monoclonal antibody (Chemicon) and anti-BrdU (Abcam). One section per layer was treated in a three-day double-incubation with mouse anti-Neuronal Nuclei (NeuN) monoclonal antibody 1:800 (Chemicon, Hofheim. Germany) and anti-BrdU (sheep polyclonal to BrdU) 1:500 (Abcam, Cambridge, UK). The secondary antibodies were a Cy-3-conjugated pure affine goat anti-mouse IgG (H+L) 1:200 (Jackson ImmunoResearch, Cambridgeshire, UK) and a Cy 2-conjugated pure affine F(ab′)2 fragment of donkey anti-sheep IgG (H+L) 1:100 (Jackson ImmunoResearch, Cambridgeshire, UK). Briefly, the anti-NeuN antibody was incubated overnight at 4° C., the Cy3 antibody was incubated the next day for one hour at room temperature, followed by the anti-BrdU antibody overnight at 4° C. and the Cy2 antibody for one hour at room temperature. To open the cell surfaces before the BrdU incubation, slices were treated with 2N HCl for 15 minutes at 40° C. and then washed for 20 minutes in a methanol mixture (60 ml methanol, 2 ml H2O2, and 0.6 ml Triton X) to block endogenous peroxidases. Niss1 staining was used as an overview staining. Tiled images of the sagittal slice including the cortex and the hippocampus were recorded at 200-fold magnification. Each single image used a PCO PixelFly camera mounted on a NikonE800 microscope equipped with an software controlled (StagePro) automatic table. Both fluorescent colors, red for NeuN and green for BrdU, were recorded separately. For quantification, the images were merged. […]

Cc1ccc2c(c1)c1c(n2CCc2ccc(C)nc2)CCN(C)C1.Cl.Cl [Dimebon, 2,8-dimethyl-5-(2-(6-methyl-3-pyridyl)-ethyl)-2,3,4,5-tetrahydro-1H-pyrido[4,3-b]indole dihydrochloride]
neurite outgrowth of primary rat spinal motor neurons [1]: stimulated
mitochondrial JC-1 staining [2]: preserved
effect on neurite length and number of neurites per neuron relative to BDNF ([3]; Dimebon 100 nM vs BDNF 50 ng/mL, 24, 48, 72 hours): comparable
neurite length ([3]; Dimebon 100 nM, incubations of 24, 48 and 72 hours, compared to vehicle, FIG. 5A): increased
number of neurites per neuron ([3]; Dimebon 100 nM, incubations of 24, 48 and 72 hours, compared to vehicle, FIG. 5B): increased
neurite outgrowth of primary rat hippocampal neurons ([3]; picomolar and nanomolar concentrations, 3 days growth, FIG. 3): stimulated
neurite outgrowth of primary rat cortical neurons [4]: stimulated
mitochondrial JC-1 staining [5]: preserved
BrdU positive progenitor cells in the dentate gyrus ([6]; 30 mg/kg Dimebon vs vehicle, p=0.05, FIG. 7A): significant increase
BrdU positive progenitor cells in the hippocampus ([6]; 60 mg/kg Dimebon vs vehicle-treated group, p=0.05, FIG. 6A): significant increase
BrdU positive neurons (NeuN and BrdU IR) in the hippocampus ([6]; 60 mg/kg Dimebon vs vehicle-treated group, p=0.05, FIG. 6B): significant increase
BrdU positive progenitor cells in the dentate gyrus ([6]; 60 mg/kg Dimebon vs vehicle-treated group, p=0.05, FIG. 7A): significant increase
BrdU positive neurons (NeuN and BrdU IR) in the dentate gyrus ([6]; 60 mg/kg Dimebon vs vehicle-treated group, p=0.05, FIG. 7B): significant increase
total number of BrdU staining cells in the hippocampus ([6]; rats, oral twice a day, FIG. 6A): increases
number of BrdU staining neurons in the hippocampus ([6]; rats, oral twice a day, FIG. 6B): increases
total number of BrdU staining cells in the dentate gyrus ([6]; rats, oral twice a day, FIG. 7A): increases
number of BrdU staining neurons in the dentate gyrus ([6]; rats, oral twice a day, FIG. 7B): increases
